Experimental data: PubChem BioAssay AID256 (DTP/NCI, 2004)
Several values for one entry are separate records, joined by “and”; a condition that tells them apart may be missing. Equal entries are not always repeated. Inconclusive results and toxic doses are left out.

Test system: CD2F1 mice, L1210 leukemia ip, survival T/C
Assay: NCI In Vivo Anticancer Drug Screen. Data for tumor model L1210 Leukemia (intraperitoneal) in CD2F1 (CDF1) mice
Details: higher = longer survival
Summary of the method: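 Ratio T/C, where T is the treated-group value and C the vehicle-dosed control value, from mice implanted with a transplantable tumor.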

[1] = endpoint: mean survival time, dose: 100.0 mg/kg/injection, schedule: Q01DX001 (ip), vehicle: Klucel (hydroxypropylcellulose) (HPC)
[2] = endpoint: mean survival time, dose: 200.0 mg/kg/injection, schedule: Q01DX001 (ip), vehicle: Klucel (hydroxypropylcellulose) (HPC)
[3] = endpoint: mean survival time, dose: 400.0 mg/kg/injection, schedule: Q01DX001 (ip), vehicle: Klucel (hydroxypropylcellulose) (HPC)
[4] = endpoint: mean survival time, dose: 100.0 mg/kg/injection, schedule: Q04DX003 (ip), vehicle: Klucel (hydroxypropylcellulose) (HPC)
[5] = endpoint: mean survival time, dose: 100.0 mg/kg/injection, schedule: Q04DX003 (ip), vehicle: saline with Tween-80
[6] = endpoint: mean survival time, dose: 200.0 mg/kg/injection, schedule: Q04DX003 (ip), vehicle: saline with Tween-80
[7] = endpoint: mean survival time, dose: 400.0 mg/kg/injection, schedule: Q04DX003 (ip), vehicle: saline with Tween-80
[8] = endpoint: mean survival time, dose: 100.0 mg/kg/injection, schedule: Q04DX002 (ip), vehicle: saline with Tween-80
[9] = endpoint: mean survival time, dose: 200.0 mg/kg/injection, schedule: Q04DX002 (ip), vehicle: saline with Tween-80
[10] = endpoint: mean survival time, dose: 100.0 mg/kg/injection, schedule: Q01DX009 (ip), vehicle: saline with Tween-80
[11] = endpoint: mean survival time, dose: 200.0 mg/kg/injection, schedule: Q01DX009 (ip), vehicle: saline with Tween-80
[12] = endpoint: mean survival time, dose: 400.0 mg/kg/injection, schedule: Q01DX009 (ip), vehicle: saline with Tween-80
[13] = endpoint: mean survival time, dose: 100.0 mg/kg/injection, schedule: Q01DX001 (ip), vehicle: saline with Tween-80
[14] = endpoint: median survival time, dose: 25.0 mg/kg/injection, schedule: Q01DX009 (ip), vehicle: saline with Tween-80
[15] = endpoint: median survival time, dose: 50.0 mg/kg/injection, schedule: Q01DX009 (ip), vehicle: saline with Tween-80
[16] = endpoint: median survival time, dose: 100.0 mg/kg/injection, schedule: Q01DX009 (ip), vehicle: saline with Tween-80
[17] = endpoint: mean survival time, dose: 100.0 mg/kg/injection, schedule: Q01DX009 (ip), vehicle: Klucel (hydroxypropylcellulose) (HPC)
[18] = endpoint: mean survival time, dose: 6.25 mg/kg/injection, schedule: Q01DX009 (ip), vehicle: saline with Tween-80
[19] = endpoint: mean survival time, dose: 12.5 mg/kg/injection, schedule: Q01DX009 (ip), vehicle: saline with Tween-80
[20] = endpoint: mean survival time, dose: 50.0 mg/kg/injection, schedule: Q01DX009 (ip), vehicle: saline with Tween-80

O=C(CCN1CC1)NCCCCCCCCNC(=O)CCN1CC1
T/C (endpoint: mean survival time, dose: 22.0 mg/kg/injection, schedule: Q01DX001 (ip), vehicle: carboxymethylcellulose (CMC)): 101 % of control
T/C (endpoint: mean survival time, dose: 33.0 mg/kg/injection, schedule: Q01DX001 (ip), vehicle: carboxymethylcellulose (CMC)): 112 % of control
T/C (endpoint: mean survival time, dose: 50.0 mg/kg/injection, schedule: Q01DX001 (ip), vehicle: carboxymethylcellulose (CMC)): 113 % of control

Nc1cccc2ccc(O)cc12
T/C [1]: 96 % of control
T/C [2]: 86 % of control
T/C [3]: 104 % of control

CC(=O)OCCN(CCOC(C)=O)CCOC(C)=O
T/C [4]: 95 % of control

Cc1ccc(NC(=O)NC2CCCCC2)cc1
T/C [5]: 93 % of control
T/C [6]: 90 % of control
T/C [7]: 93 % of control

Cn1c(/C=C/C(=O)O)cc2ccccc21
T/C (endpoint: mean survival time, dose: 75.0 mg/kg/injection, schedule: Q01DX001 (ip), vehicle: saline): 108 % of control
T/C (endpoint: mean survival time, dose: 150.0 mg/kg/injection, schedule: Q01DX001 (ip), vehicle: saline): 106 % of control
T/C (endpoint: mean survival time, dose: 300.0 mg/kg/injection, schedule: Q01DX001 (ip), vehicle: saline): 106 % of control

CCCCOC(=O)Nc1ccccn1
T/C [8]: 101 % of control
T/C [9]: 104 % of control

O=C1OC2C3CC4C2OC(=O)C4C13 (stereo not drawn)
T/C [10]: 102 % of control
T/C [11]: 98 % of control
T/C [12]: 90 % of control

O=C(CC(=O)C(F)(F)F)C(F)(F)F.[C-]#[O+].[C-]#[O+].[Mn].c1ccc([PH+](c2ccccc2)c2ccccc2)cc1.c1ccc([PH+](c2ccccc2)c2ccccc2)cc1
T/C (endpoint: mean survival time, dose: 12.5 mg/kg/injection, schedule: Q04DX002 (ip), vehicle: saline with Tween-80): 91 % of control
T/C (endpoint: mean survival time, dose: 25.0 mg/kg/injection, schedule: Q04DX002 (ip), vehicle: saline with Tween-80): 91 % of control
T/C (endpoint: mean survival time, dose: 50.0 mg/kg/injection, schedule: Q04DX002 (ip), vehicle: saline with Tween-80): 95 % of control

Cc1ccc(SSc2ccc(C)cc2)cc1
T/C (endpoint: mean survival time, dose: 100.0 mg/kg/injection, schedule: Q01DX001 (ip), vehicle: saline): 100 % of control
T/C (endpoint: mean survival time, dose: 200.0 mg/kg/injection, schedule: Q01DX001 (ip), vehicle: saline): 100 % of control
T/C (endpoint: mean survival time, dose: 400.0 mg/kg/injection, schedule: Q01DX001 (ip), vehicle: saline): 91 % of control

Nc1ncnc2nc(SCc3cccc([N+](=O)[O-])c3)[nH]c12
T/C [13]: 96 % of control
T/C (endpoint: mean survival time, dose: 200.0 mg/kg/injection, schedule: Q01DX001 (ip), vehicle: saline with Tween-80): 90 % of control
T/C (endpoint: mean survival time, dose: 400.0 mg/kg/injection, schedule: Q01DX001 (ip), vehicle: saline with Tween-80): 90 % of control

O=C(Nc1cccc(F)c1)c1c(O)[nH]c(=S)[nH]c1=O
T/C [14]: 114 % of control and 106 % of control
T/C [15]: 113 % of control and 114 % of control
T/C [16]: 117 % of control
T/C (endpoint: median survival time, dose: 200.0 mg/kg/injection, schedule: Q01DX009 (ip), vehicle: saline with Tween-80): 155 % of control

O=[N+]([O-])c1ccc(N=Cc2ccc3c(c2)OCO3)cc1
T/C [1]: 106 % of control
T/C [17]: 96 % of control
T/C [2]: 101 % of control
T/C (endpoint: mean survival time, dose: 200.0 mg/kg/injection, schedule: Q01DX009 (ip), vehicle: Klucel (hydroxypropylcellulose) (HPC)): 97 % of control
T/C [3]: 96 % of control
T/C (endpoint: mean survival time, dose: 400.0 mg/kg/injection, schedule: Q01DX009 (ip), vehicle: Klucel (hydroxypropylcellulose) (HPC)): 96 % of control

C[n+]1c(/C=N/NC(N)=S)ccc2ccccc21
T/C [18]: 102 % of control
T/C [19]: 106 % of control
T/C (endpoint: mean survival time, dose: 25.0 mg/kg/injection, schedule: Q01DX009 (ip), vehicle: saline with Tween-80): 108 % of control
T/C [20]: 100 % of control
T/C [10]: 91 % of control
T/C [11]: 94 % of control
T/C (endpoint: median survival time, dose: 6.25 mg/kg/injection, schedule: Q01DX009 (ip), vehicle: saline with Tween-80): 100 % of control
T/C (endpoint: median survival time, dose: 12.5 mg/kg/injection, schedule: Q01DX009 (ip), vehicle: saline with Tween-80): 100 % of control
T/C [14]: 96 % of control
T/C [15]: 96 % of control
T/C [16]: 101 % of control

Cc1ccc(CNc2ccccc2)cc1
T/C (endpoint: mean survival time, dose: 12.5 mg/kg/injection, schedule: Q01DX009 (ip), vehicle: other): 103 % of control
T/C (endpoint: mean survival time, dose: 25.0 mg/kg/injection, schedule: Q01DX009 (ip), vehicle: other): 108 % of control
T/C (endpoint: mean survival time, dose: 50.0 mg/kg/injection, schedule: Q01DX009 (ip), vehicle: other): 96 % of control
T/C (endpoint: mean survival time, dose: 100.0 mg/kg/injection, schedule: Q04DX003 (ip), vehicle: other): 97 % of control
T/C (endpoint: mean survival time, dose: 200.0 mg/kg/injection, schedule: Q04DX003 (ip), vehicle: other): 89 % of control and 102 % of control
T/C (endpoint: mean survival time, dose: 400.0 mg/kg/injection, schedule: Q04DX003 (ip), vehicle: other): 88 % of control and 96 % of control

CCCCCCCC/C=C\CCCCCCCC(=O)OCCCCC
T/C [8]: 87 % of control
T/C [9]: 95 % of control
T/C (endpoint: mean survival time, dose: 400.0 mg/kg/injection, schedule: Q04DX002 (ip), vehicle: saline with Tween-80): 106 % of control

[O-][n+]1c2c(cc3ccccc31)Cc1ccccc1-2
T/C [4]: 98 % of control
T/C (endpoint: mean survival time, dose: 200.0 mg/kg/injection, schedule: Q04DX003 (ip), vehicle: Klucel (hydroxypropylcellulose) (HPC)): 96 % of control
T/C (endpoint: mean survival time, dose: 400.0 mg/kg/injection, schedule: Q04DX003 (ip), vehicle: Klucel (hydroxypropylcellulose) (HPC)): 93 % of control

O=[N+]([O-])/C=C\c1cc2c3c(c1)CCCN3CCC2
T/C (endpoint: mean survival time, dose: 3.13 mg/kg/injection, schedule: Q01DX009 (ip), vehicle: saline with Tween-80): 105 % of control
T/C [18]: 97 % of control
T/C [19]: 100 % of control
T/C (endpoint: mean survival time, dose: 50.0 mg/kg/injection, schedule: Q01DX001 (ip), vehicle: saline with Tween-80): 105 % of control
T/C [13]: 103 % of control

O=c1[nH]cc(NCCCc2ccccc2)c(=O)[nH]1
T/C [5]: 102 % of control
T/C [6]: 104 % of control
T/C [7]: 96 % of control

CC1=CCC2C(=O)NC(=O)C2C1 (stereo not drawn)
T/C [20]: 96 % of control
T/C [10]: 104 % of control
T/C [11]: 104 % of control

C[N+](C)(C)c1cc2c(nn1)Nc1ccccc1S2
T/C (endpoint: mean survival time, dose: 3.12 mg/kg/injection, schedule: Q01DX009 (ip), vehicle: Klucel (hydroxypropylcellulose) (HPC)): 97 % of control and 100 % of control
T/C (endpoint: mean survival time, dose: 6.25 mg/kg/injection, schedule: Q01DX009 (ip), vehicle: Klucel (hydroxypropylcellulose) (HPC)): 102 % of control and 103 % of control
T/C (endpoint: mean survival time, dose: 12.5 mg/kg/injection, schedule: Q01DX009 (ip), vehicle: Klucel (hydroxypropylcellulose) (HPC)): 87 % of control and 100 % of control
T/C (endpoint: mean survival time, dose: 25.0 mg/kg/injection, schedule: Q01DX009 (ip), vehicle: Klucel (hydroxypropylcellulose) (HPC)): 102 % of control and 103 % of control
T/C (endpoint: mean survival time, dose: 25.0 mg/kg/injection, schedule: Q04DX003 (ip), vehicle: saline): 111 % of control
T/C (endpoint: mean survival time, dose: 50.0 mg/kg/injection, schedule: Q01DX009 (ip), vehicle: Klucel (hydroxypropylcellulose) (HPC)): 94 % of control and 100 % of control
T/C (endpoint: mean survival time, dose: 50.0 mg/kg/injection, schedule: Q04DX003 (ip), vehicle: saline): 117 % of control
T/C [17]: 96 % of control and 103 % of control
T/C (endpoint: mean survival time, dose: 100.0 mg/kg/injection, schedule: Q04DX003 (ip), vehicle: saline): 109 % of control

CC(=O)/C=C\c1cc(C)ccc1O
T/C [1]: 95 % of control
T/C [2]: 103 % of control
T/C [3]: 100 % of control

Cc1cccc2c1NC(=O)C2=O
T/C (endpoint: median survival time, dose: 100.0 mg/kg/injection, schedule: Q04DX002 (ip), vehicle: saline with Tween-80): 94 % of control
T/C (endpoint: median survival time, dose: 400.0 mg/kg/injection, schedule: Q04DX002 (ip), vehicle: saline with Tween-80): 105 % of control

CC(=O)OCC1CCC1
T/C [10]: 95 % of control
T/C [11]: 95 % of control
T/C [12]: 103 % of control
